In patent USRE35321E, “Tetrazoleacetic acid derivatives having aldose reductase inhibitory activity” (Wakamoto Pharmaceutical Co., Ltd., priority 1990, dated 1996):
pIC50: −log10 of the molar value.

What follows are molecules tested on accumulation of sorbitol in sciatic nerve (assay: Inhibiting the accumulation of sorbitol in sciatic nerve of streptozotocin diabetic rats). Conditions: 10 mg/kg oral, twice a day for 5 days.
Type: in vivo, Sprague-Dawley male rats
Experimental: Groups of 6 to 8-weeks-old Sprague-Dawley male rats (4 aminals per group) were fasted for 18 hours and streptozotocin was injected through the tail vein in a dose of 60 mg/kg to thus obtain diabetic rats. Immediately after the administration of the streptozotocin, each compound to be tested was orally administered to these rats in the form of a suspension at a dose of 10 mg/kg, 30 mg/kg and 50 mg/kg (each was suspended in a 0.5% sodium carboxymethyl cellulose solution) twice a day (9 o'clock in the morning and 5 o'clock in the afternoon) for 5 days. During the test, the rats took diet and drank water freely. 4 Hours after the final administration of the drug in the 5th day's morning (9 o'clock in the morning), the rats were sacrificed and then the sciatic nerve thereof was removed to determine the amount of sorbitol accumulated therein.
The results are expressed in the percentage obtained while the value obtained on the control to which any drug was not administered is defined to be 100.
In the case of O=C(O)Cn1nnnc1-c1ccsc1 [Example 2-5, [5-(3-thienyl)tetrazol-1-yl] acetic acid], the “Rate of Inhibition of Sorbitol Accumulation” value was 73%. With Cc1ccsc1-c1nnnn1CC(=O)O [Example 2-2, [5-(3-methyl-2-thienyl)tetrazol-1-yl] acetic acid] the “Rate of Inhibition of Sorbitol Accumulation” value was 62%. CC(/C=C1\SC(=S)N(CC(=O)O)C1=O)=C\c1ccccc1 [ONO-2235, (E)-3-carboxymethyl-5-[(2E)-methyl-3-phenylpropenylidene] rhodan, reference compound] was tested, and the “Rate of Inhibition of Sorbitol Accumulation” value was 0%.

Same assay, conditions: 30 mg/kg oral, twice a day for 5 days
For O=C(O)Cn1nnnc1-c1ccsc1 [Example 2-5, [5-(3-thienyl)tetrazol-1-yl] acetic acid], the “Rate of Inhibition of Sorbitol Accumulation” value was 90%. Cc1ccsc1-c1nnnn1CC(=O)O [Example 2-2, [5-(3-methyl-2-thienyl)tetrazol-1-yl] acetic acid] was tested, and the “Rate of Inhibition of Sorbitol Accumulation” value was 93%. In the case of CC(/C=C1\SC(=S)N(CC(=O)O)C1=O)=C\c1ccccc1 [ONO-2235, (E)-3-carboxymethyl-5-[(2E)-methyl-3-phenylpropenylidene] rhodan, reference compound], the “Rate of Inhibition of Sorbitol Accumulation” value was 0%.

Same assay, conditions: 50 mg/kg oral, twice a day for 5 days
With CC(/C=C1\SC(=S)N(CC(=O)O)C1=O)=C\c1ccccc1 [ONO-2235, (E)-3-carboxymethyl-5-[(2E)-methyl-3-phenylpropenylidene] rhodan, reference compound] the “Rate of Inhibition of Sorbitol Accumulation” value was 40%.

The molecules below were run against T1, aldose reductase (Rattus norvegicus, UniProt P07943) (assay: Aldose reductase inhibitory effect (enzyme from crystalline lenses, DL-glyceraldehyde substrate)). Conditions: 10 mM DL-glyceraldehyde, pH 6.2, 30° C.
T1 construct: Then their crystalline lenses were immediately removed and stored at -80° C; The lenses were homogenized; from tissue; host or cells: crystalline lenses of six-week-old male SD rats
Type: biochemical, rat (male SD)
Experimental: Six-weeks-old male SD rates were anesthetized with ether and killed. Then their crystalline lenses were immediately removed and stored at -80° C. […] All operations were conducted at 4° C. and the enzyme solution was stored at -80° C.
More specifically, 0.1 ml of DL glyceraldehyde (final concentration: 10 mM) was added to 0.9 ml of 100 mM sodium potassium phosphate buffer (pH 6.2) which contained lithium sulfate (final concentration: 400 mM), reduced nicotinamide adenine dinucleotide phosphate (final concentration: 0.15 mM), the enzyme solution, and the compound to be evaluated (final concentration: 10^-6 M, 10^-7 M or […]), and then the reaction was conducted at 30° C. for 5 minutes. During the reaction, the change in the absorbance at 340 nm with time was monitored. The maximum reducing rate of the absorbance (U) during the reaction was determined. By subtracting, from this value, the maximum reducing rate (Uo) at 340 nm of the reaction solution before the addition of the substrate (DL-glyceraldehyde), the reaction rate (V=U-Uo) was calculated as a true reaction rate in the presence of the compound to be tested.
The same procedure was repeated except for the absence of the compound to be tested. A true reaction rate (Vo) in case the enzyme was not inhibited was calculated (Vo =U'-Uo '). The aldose reductase inhibitory activity of the test compounds was determined according to the following formula:
Rate of Inhibition (%)=(Vo -V)/Vo ×100
CS(=O)(=O)c1sccc1-c1nnnn1CC(=O)O [Example 2-44, [5-(2-methylsulfonyl-3-thienyl)tetrazol-1-yl] acetic acid] gave a pIC50 of 6.28. Work on O=C(O)Cn1nnnc1-c1ccc(Br)s1 [Example 2-11, [5-(5-bromo-1-thienyl)tetrazol-1-yl] acetic acid] yielded a pIC50 of 7.72. For COC(=O)Cn1nnnc1-c1ccsc1 [Example 1-5, methyl [5-(3-thienyl)tetrazol-1-yl] acetate], the pIC50 was 6.02. O=C(O)Cn1nnnc1-c1ccc(S(=O)(=O)N2CCCCC2)s1 [Example 2-37, [5-(5-piperidinosulfonyl2-thienyl)tetrazol-1-yl] acetic acid] gave a pIC50 of 6.64. Work on Cc1csc(-c2nnnn2CC(=O)O)c1 [Example 2-3, [5-(4-methyl-2-thienyl)tetrazol-1-yl] acetic acid] yielded a pIC50 of 7.62. Work on O=C(O)Cn1nnnc1-c1ccsc1Sc1ccccc1 [Example 2-33, [5-(2-phenylthio-3-thienyl)tetrazol-1-yl] acetic acid] yielded a pIC50 of 7.62. CCc1ccc(-c2nnnn2CC(=O)O)s1 [Example 2-8, [5-(5-ethyl-2-thienyl)tetrazol-1-yl] acetic acid] showed a pIC50 of 7.68. O=C(O)Cn1nnnc1-c1ccsc1Br [Example 2-24, [5-(2-bromo-3-thienyl)tetrazol-1-yl] acetic acid] gave a pIC50 of 7.42. Work on COC(=O)Cn1nnnc1-c1ccsc1SC [Example 3-11, methyl [5-(2-methylthio-3-thienyl)tetrazol-1-yl] acetate] yielded a pIC50 of 6.42. CCCCN(CCCC)S(=O)(=O)c1ccc(-c2nnnn2CC(=O)O)s1 [Example 2-36] showed a pIC50 of 7.07. With COc1ccsc1-c1nnnn1CC(=O)O [Example 2-15, [5-(3-methoxy-2-thienyl)tetrazol-1-yl] acetic acid] the pIC50 was 7.54. Cc1ccc(-c2nnnn2CC(=O)O)s1 [Example 2-4, [5-(5-methyl-2-thienyl)tetrazol-1-yl] acetic acid] was tested, and the pIC50 was 7.64. O=C(O)Cn1nnnc1-c1ccco1 [Example 2-6, [5-(2-furyl)tetrazol-1-yl] acetic acid] was tested, and the pIC50 was 7.22. COCc1ccc(-c2nnnn2CC(=O)O)s1 [Example 2-22, [5-(5-methoxymethyl-2-thienyl)tetrazol-1-yl] acetic acid] was tested, and the pIC50 was 7.51. CCCCOCc1ccc(-c2nnnn2CC(=O)O)s1 [Example 2-23, [5-(5-butoxymethyl-2-thienyl)tetrazol-1-yl] acetic acid] showed a pIC50 of 7.60. With COC(=O)Cn1nnnc1-c1ccoc1 [Example 1-7, methyl (5-(3-furyl)tetrazol-1-yl] acetate] the pIC50 was 6.13. With O=C(O)Cn1nnnc1-c1ccc(Cc2ccccc2)s1 [Example 2-9, [5-(5-benzyl-2-thienyl)tetrazol-1-yl] acetic acid] the pIC50 was 7.70. For O=C(O)Cn1nnnc1-c1ccsc1 [Example 2-5, [5-(3-thienyl)tetrazol-1-yl] acetic acid], the pIC50 was 7.68. O=C(O)Cn1nnnc1-c1sccc1NS(=O)(=O)c1ccccc1 [Example 2-41, [5-(3-phenylsulfonylamino-2-thienyl)tetrazol-1-yl] acetic acid] gave a pIC50 of 7.64. CCCCc1ccc(-c2nnnn2CC(=O)OC)s1 [Example 3-5, methyl [5-(5-butyl-2-thienyl)tetrazol-1-yl] acetate] gave a pIC50 of 6.74. Molecule CC(=O)Nc1ccsc1-c1nnnn1CC(=O)O [Example 2-17] has a pIC50 of 7.55. In the case of O=C(O)Cn1nnnc1-c1ccc(CCCc2ccccc2)s1 [Example 2-21, [5-(5-phenylpropyl-2-thienyl)tetrazol-1-yl] acetate acid], the pIC50 was 7.55. In the case of CCOC(=O)Cn1nnnc1-c1ccsc1 [Example 3-2, ethyl [5-(3-thienyl)tetrazol-1-yl] acetate], the pIC50 was 6.24. CSc1sccc1-c1nnnn1CC(=O)O [Example 2-26, [5-(2-methylthio-3-thienyl)tetrazol-1-yl] acetic acid] gave a pIC50 of 7.51. Work on CSc1ccc(-c2nnnn2CC(=O)O)s1 [Example 2-10] yielded a pIC50 of 7.70. Work on O=C(O)Cn1nnnc1-c1ccc(CBr)s1 [Example 2-13, [5-(5-bromomethyl-2-thienyl)tetrazol-1-yl] acetic acid] yielded a pIC50 of 7.60. C[S+]([O-])c1sccc1-c1nnnn1CC(=O)O (stereo not drawn) [Example 2-43, [5-(2-methylsulfinyl-3-thienyl)tetrazol-1-yl] acetic acid] was tested, and the pIC50 was 6.52. CCN(CC)S(=O)(=O)c1sccc1-c1nnnn1CC(=O)O [Example 2-38, [5-[2-(N,N-diethylaminosulfonyl)-3-thienyl)tetrazol-1-yl] acetic acid] was tested, and the pIC50 was 6.34. With CSc1ccc(-c2nnnn2CC(=O)O)o1 [Example 2-30, [5-(5-methylthio-2-furyl)tetrazol-1-yl] acetic acid] the pIC50 was 6.96. For O=C(O)Cn1nnnc1-c1ccc(Sc2ccccc2)s1 [Example 2-34, [5-(5-phenylthio-2-thienyl)tetrazol-1-yl] acetic acid], the pIC50 was 7.59. In the case of CCCCS(=O)(=O)Nc1ccsc1-c1nnnn1CC(=O)O [Example 2-40, [5-(3-butylsulfonylamino-2-thienyl)tetrazol-1-yl] acetic acid], the pIC50 was 7.80. CCCCOc1ccsc1-c1nnnn1CC(=O)O [Example 2-16, [5-(3-butoxy-2-thienyl)tetrazol-1-yl] acetic acid] showed a pIC50 of 7.51. In the case of O=C(O)Cn1nnnc1-c1sccc1O [Example 2-42, [5-(3-hydroxy-2-thienyl)tetrazol-1-yl] acetic acid], the pIC50 was 7.70. Molecule Cc1ccsc1-c1nnnn1CC(=O)O [Example 2-2, [5-(3-methyl-2-thienyl)tetrazol-1-yl] acetic acid] has a pIC50 of 7.74. For CCCCc1ccc(-c2nnnn2CC(=O)O)o1 [Example 2-28, [5-(5-butyl-2-furyl)tetrazol1-yl-] acetic acid], the pIC50 was 6.89. With Cc1ccc(-c2nnnn2CC(=O)O)o1 [Example 2-27, [5-(5-methyl-2-furyl)tetrazol-1-yl] acetic acid] the pIC50 was 6.82. For CSc1occc1-c1nnnn1CC(=O)O [Example 2-32, [5-(2-methylthio-3-furyl)tetrazol-1-yl] acetic acid], the pIC50 was 7.46. In the case of CS(=O)(=O)Nc1ccsc1-c1nnnn1CC(=O)O [Example 2-39, [5-(3-methylsulfonylamino-2-thienyl)tetrazol-1-yl] acetic acid], the pIC50 was 7.55. In the case of CCCCc1ccc(-c2nnnn2CC(=O)O)s1 [Example 2-20, [5-(5-butyl-2-thienyl)tetrazol-1-yl] acetic acid], the pIC50 was 7.64. Molecule Cc1sccc1-c1nnnn1CC(=O)O [Example 2-12, [5-(2-methyl-3-thienyl)tetrazol-1-yl] acetic acid] has a pIC50 of 8.00. For COC(=O)Cn1nnnc1-c1sccc1NS(=O)(=O)c1ccccc1 [Example 1-27, methyl [5-(3-phenylsulfonylamino-2-thienyl)tetrazol-1-yl acetate], the pIC50 was 6.64. For O=C(O)Cn1nnnc1-c1sccc1NC(=O)CCc1ccccc1 [Example 2-19, [5-(3-phenethylcarbonylamino-2-thienyl)tetrazol-1-yl] acetic acid], the pIC50 was 7.62. O=C(O)Cn1nnnc1-c1ccoc1Br [Example 2-31, [5-(2-bromo-3-furyl)tetrazol-1-yl] scetic acid] was tested, and the pIC50 was 7.07. O=C(O)Cn1nnnc1-c1ccc(-c2ccccc2)s1 [Example 2-14, [5-(5-phenyl-2-thienyl)tetrazol-1-yl] acetic acid] was tested, and the pIC50 was 7.68. CCN(CC)S(=O)(=O)c1ccc(-c2nnnn2CC(=O)O)s1 [Example 2-35, [5-[5-(N,N-diethylaminosulfonyl)-2-thienyl]tetrazol-1-yl] acetic acid] was tested, and the pIC50 was 6.41. CCCC(=O)Nc1ccsc1-c1nnnn1CC(=O)O [Example 2-18, [5-(3-propylcarbonylamino-2-thienyl)tetrazol-1-yl] acetic acid] was tested, and the pIC50 was 7.70. Work on O=C(O)Cn1nnnc1-c1ccc(Br)o1 [Example 2-29, [5-(5-bromo-2-furyl)tetrazol-1-yl] acetic acid] yielded a pIC50 of 6.80.
